# Data published in US12539406B2, “Electrostimulation based drug delivery system and method for using thereof” (City University of Hong Kong, priority 2022, dated 2026).
# Assays:
# [1] = long-term drug release from PLGA microneedle patches in PBS; type: physicochemical; conditions: loaded in PLGA II microneedle patch, PBS solution at 37° C., after 15 days
# Description: In addition, the long-term drug release performance of the PLGA II microneedle patch is conducted by loading aspirin and ibuprofen, which are two commonly used drugs in anti-inflammation. Aspirin- and ibuprofen-loaded PLGA microneedle patches are immersed in PBS solution at 37° C. for one month. […] The aspirin releases more than 80% while ibuprofen releases around 70% after 15 days, indicating a promising drug delivery performance of the PLGA microneedles.
# Commercial aspirin (99%, Rhawn) or ibuprofen (98%, Macklin) were dissolved in chloroform and mixed with PLGA solution, where the mass of aspirin and ibuprofen are the weight ratio of 10% and 5% of PLGA polymers, respectively. Then the composite solution was added in a PDMS microneedle mold. The solutions in the mold were put in a vacuum over at 40° C. until no solvent remained. Finally, the solidified PLGA microneedles with mold were put at 100° C. heating stage for 2 h to remove residual solvent. After that, the obtained PLGA microneedles were heat pressed on the wireless electric stimulative electrodes, followed by depositing W (˜1000 nm) on the PLGA microneedle to yield the conductive microneedle electrodes.
# [2] = model drug release into agarose gel; type: physicochemical; conditions: PLGA II microneedle patch inserted into agarose gel, 5 days
# From the text: The Rhodamine B-loaded PLGA II microneedle patch is then inserted into an agarose gel with a parafilm layer. The gel becomes red after the insertion of PLGA II microneedle patch loaded with Rhodamine B after 5 days while the control sample is still white. The insertion holes created by PLGA II with Rhodamine B show a higher florescence intensity (right panel in FIG. 4A) compared with that of the agar inserted by pure PLGA II microneedle patch (left panel in FIG. 4A).
drug release ratio [1],release of model drug from microneedle tips (fluorescence) [2],Structure (SMILES)
more than 80%,–,CC(=O)Oc1ccccc1C(=O)O [aspirin]
–,successfully released,CCN(CC)c1ccc2c(-c3ccccc3C(=O)O)c3ccc(=[N+](CC)CC)cc-3oc2c1.[Cl-] [Rhodamine B]
around 70%,–,CC(C)Cc1ccc(C(C)C(=O)O)cc1 (stereo not drawn) [ibuprofen]
